According to US20050148673A1, “Prolonged administration of NMDA antagonist and safener drug to alter neuropathic pain condition” (priority 2002, published 2005):

Key:
[1] = system: patients with post-herpetic neuralgia; conditions: cited from earlier work; for patients in whom side effects were observed: single intravenous injection, of 8 patients (ketamine 0.15 mg/kg, morphine 0.075 mg/kg), Eide et al 1994
[2] = Ketamine and norketamine concentrations in blood plasma during infusion; assay type: in vivo, human
Method: Blood samples were taken from each patient during his or her infusion regimen, and those samples were shipped to an analytical laboratory (National Medical Services Company, in Willow Grove, Pa.) to have their ketamine concentrations analyzed. […] In view of those data, it is believed that blood plasma concentrations of at least about 200 ng/ml (and preferably at least about 250 to about 350 ng/ml) should be regarded as target levels for effective treatments.

[3] = system: patients with CRPS-Type 1 (RSD) neuropathic pain; test: Prolonged continuous intravenous ketamine infusion with clonidine and MgSO4 in U.S. patients with CRPS-Type 1 (RSD); assay type: in vivo, human
Method: Roughly 2 hours before ketamine infusion begins, the patient should be given an oral dose of a “safener drug” that can reduce or eliminate the risks of any neurotoxic side effects that might otherwise be caused by continuous prolonged administration of the ketamine. […] As an additional benefit, clonidine (and various other alpha-2 adrenergic agonist drugs) can also help reduce blood pressure. This is useful, when used in conjunction with ketamine, since elevated blood pressure can be a side effect of ketamine, due to certain activities involving the sympathetic nervous system and the release of catecholamines.
In the treatments disclosed herein, clonidine tablets containing 0.1 or 0.2 mg were administered orally, every 8 to 12 hours, with good results. […] The transdermal form of clonidine (i.e., using skin patches) has also been used, with good results.
Beginning roughly 2 hours before the ketamine infusion is commenced (this can be done conveniently at the same time when the first clonidine tablet is taken), the patient should also be administered magnesium, preferably by intravenous infusion of a water-soluble salt, such as magnesium sulfate or chloride. This can be done by dissolving 2 grams of MgSO4 in 250 milliliters of 5% dextrose in water (abbreviated as D5W) and infusing the liquid into the patient over a period of about 2 hours.
A second infusion of 2 grams of MgSO4 should be administered roughly 24 hours later. This can be repeated each day, if desired, if the patient has not yet achieved complete cessation of the chronic pain; however, in the treatments completed to date, it has never been provided more than 3 times.
As soon as the initial magnesium infusion (which takes about 2 hours) has been completed, the patient is ready for the ketamine infusion to begin. In the treatments described herein, since these were done without being able to rapidly determine ketamine concentrations in blood, each patient was individually “titered”, by testing a series of gradually increasing dosages until a “maximum tolerated dosage” was reached and determined.
This typically was done by starting each patient at an initial dosage of 10 mg per hour, and then evaluating the patient every 2 hours after that, to see whether the dosage should be increased by another 5 or 10 mg/hr. When a patient began showing or reporting substantial CNS effects (such as feeling drunk, slurring of speech, semi-hallucinatory thoughts or visions, etc.), it was presumed that the maximum tolerated dosage had been reached or slightly passed, and the dosage was decreased slightly (such as by 5 or 10 mg/hr, depending on how well the reported pain levels were decreasing).
Four other patients who had suffering from CRPS type 1 for at least two years were subsequently treated in the U.S. Because of patient privacy concerns, the details of their condition cannot be disclosed herein. Typical treatments for these patients commenced with 2 grams of MgSO4 (infused in 5% dextrose in water, or D5W) and 1 or 2 tablets of 0.1 mg clonidine, two or three times per day as tolerated, commencing at least an hour prior to the first ketamine infusion. Throughout the treatment, patients continued to receive 1 or 2 tablets of clonidine 2 to 3 times per day, as tolerated, and a second magnesium infusion was performed in some patients at 24 hr.

[4] = system: patients with chronic neuropathic pain; test: Prolonged infusions of ketamine without any safener drug or magnesium, patients treated in Australia; assay type: in vivo, human
From the text: About 30 patients have been treated during the span of 1997 through 2002, in Australia, by one of the Inventors herein (Correll), using prolonged infusions of ketamine without any safener drug or magnesium. […] Those patients have been described in more detail in Correll et al 2004, and more current information on the duration of remission are provided in FIGS. 1 and 2 of that report. That report is not prior art against this invention.

[5] = system: patients with post-herpetic neuralgia (shingles); test: Ketamine treatment of patients with post-herpetic neuralgia (shingles); assay type: in vivo, human
Method: Several patients were also treated who suffered from post-herpetic neuralgia (commonly known as shingles).

[6] = system: NMDA receptors; conditions: cited from earlier work

Structure (SMILES)	patients in whom side effects were observed [1]	tolerability ([1]; subcutaneous administration over a continuous span of 7 days, 5 patients, Eide et al 1995)	blood plasma concentration of ketamine in the two patients without complete and long-lasting relief ([2]; did not reach or even closely approach this level)	blood plasma concentration of ketamine that appeared to provide the best results ([2]; plasma, during infusion)	reported pain level ([3]; FIG. 1 patient, baseline 8, after 24 hours of ketamine infusion (plateau))	duration of apparently complete relief ([3]; FIG. 1 patient, one of four further CRPS type 1 patients)	reported pain level ([3]; FIG. 1 patient, within about 3 hours after second MgSO4 infusion commencing at 24 hours, ketamine continued)	duration of apparently complete remission ([3]; first patient treated in the U.S.)	pain relief outcome ([3]; one of four further CRPS type 1 patients, appears permanent as of filing date)	level to which pain returned, relative to pretreatment level ([3]; one of two patients with low ketamine plasma concentrations)	level to which pain returned ([3]; other of two patients with low ketamine plasma concentrations)	overall result ([4]; ketamine alone, about 30 patients)	patients believed to remain generally pain-free or in partial remission ([4]; of about 30 patients treated 1997 through 2002, ketamine alone)	outcome in certain other patients [5]	outcome in one patient [5]	effectiveness relative to ketamine in reducing pain signals [6]	effectiveness relative to ketamine in suppressing activity at NMDA receptors [6]	level of norketamine in blood ([2]; one patient with return of pain)
CNC1(c2ccccc2Cl)CCCCC1=O (racemic) [ketamine]	8 patients	associated with intolerable side effects	< 300 ng/mL	greater than 250 ng/ml	about 1.3	roughly six	zero	about 18 months	apparently complete relief	roughly 50%	roughly the same starting level that existed prior to treatment	generally good results	more than 25 patients	transitory and partial benefits	essentially complete remission	–	–	–
CN1CC[C@]23c4c5ccc(O)c4O[C@H]2[C@@H](O)C=C[C@H]3[C@H]1C5 [morphine]	6 patients	–	–	–	–	–	–	–	–	–	–	–	–	–	–	–	–	–
NC1(c2ccccc2Cl)CCCCC1=O (stereo not shown) [norketamine]	–	–	–	–	–	–	–	–	–	–	–	–	–	–	–	about 25%	about 25%	high level
